Assays:
HIV-1 [1] = conditions: SCID-hu mice; Datema et al., 1996; cited from earlier work
HIV-1 [2] = conditions: certain cultured cells; Cocchi et al., 1995; cited from earlier work
[3] = test system: fusion mediated by CD4, CXCR4, and the HIV-1 Env protein gp143; test: CHO cell/Jurkat cell fusion assay, β-lactamase/CCF2 FRET readout; format: cell-based; conditions: CHO gp143/HXB2 cells with Jurkat β-lactamase cells
Procedure: Jurkat cells expressing β-lactamase (and which naturally express CXCR4 and CD4) were added to the CHO cells and incubated at 37° C. for a period sufficient to allow fusion to occur. The non-fused cells were removed by washing and the fluorogenic 1β-lactamase substrate CCF2/AM was added to the remaining cells. After a 1 hour incubation at room temperature, cell fusion was measured by fluorescence on a fluorescence plate reader. The ratio of emission of the donor dye (7-hydroxycoumarin) over emission of the acceptor dye (fluorescein) was measured.
Fusion is measured by observing the ratio of blue emission (460 nm) to green emission (530 nm). A high ratio indicates more fusion; a low ratio indicates less fusion.
CHO cells expressing gp143/HXB2 were plated in 96-well black, clear-bottom plates (Costar catalogue number 3603) at 5×10^4 cells per well in 200 μl of medium per well. The medium was Iscove's Modified Dulbecco's Medium (Gibco catalogue number 12440-046) supplemented with: 10% fetal bovine serum, G418 (1 mg/ml), 1 mg/ml penicillin/streptomycin (Gibco catalogue number 15140-122), glutamine (2 mM), and HT (ATCC 71-X).
The cells were incubated overnight at 37° C. […]
The plates were read on a Cytofluor II fluorescence plate reader (PerSeptive Biosystems) at 2 scans/cycle. […]

In the case of `c1cc(CN2CCCNCCNCCCNCC2)ccc1CN1CCCNCCNCCCNCC1` [AMD3100], the “inhibition of HIV-1 replication” value (HIV-1 [1]) is given as “inhibits HIV-1 replication”.

For RANTES, the “suppression of HIV-1 replication” value (HIV-1 [2]) is listed as “able to suppress HIV-1 replication”.

In the case of “SDF-1: the natural ligand for CXCR4 (PeproTech Inc.); a chemokine”, the “inhibition of fusion (in words)” value [3] is reported as “dose-dependent inhibition of fusion”.

From patent US7029868B2, “Cell fusion assays using fluorescence resonance energy transfer” (Merck & Co., Inc., priority 2000, dated 2006)
